Results published in patent US6413937B1, “Combinations for use in increasing the potency of a substrate for multidrug resistance related protein” (Dublin City University and Enterprise Ireland, priority 1996, dated 2002).
Entries after “also recorded” stand apart in the source; their conditions may differ.

Columns and labels:
[1] = test system: murine and human cultured tumour cells; settings: non-toxic concentrations of indomethacin; in vitro; cited from earlier work
[2] = biological target: T1, MRP pump (Homo sapiens, UniProt P33527); assay: ATP-dependent transport of [3H]LTC4 into inside-out plasma membrane vesicles from HL60ADR cells; format: biochemical; settings: for MRP-pump inhibitory activity: conclusion from Table 4
T1 construct: inside-out plasma membrane vesicles prepared from HL60ADR cells; endogenous in cells; host or cells: HL60ADR cells (plasma membrane vesicles)
T1 sequence (P33527 whole entry): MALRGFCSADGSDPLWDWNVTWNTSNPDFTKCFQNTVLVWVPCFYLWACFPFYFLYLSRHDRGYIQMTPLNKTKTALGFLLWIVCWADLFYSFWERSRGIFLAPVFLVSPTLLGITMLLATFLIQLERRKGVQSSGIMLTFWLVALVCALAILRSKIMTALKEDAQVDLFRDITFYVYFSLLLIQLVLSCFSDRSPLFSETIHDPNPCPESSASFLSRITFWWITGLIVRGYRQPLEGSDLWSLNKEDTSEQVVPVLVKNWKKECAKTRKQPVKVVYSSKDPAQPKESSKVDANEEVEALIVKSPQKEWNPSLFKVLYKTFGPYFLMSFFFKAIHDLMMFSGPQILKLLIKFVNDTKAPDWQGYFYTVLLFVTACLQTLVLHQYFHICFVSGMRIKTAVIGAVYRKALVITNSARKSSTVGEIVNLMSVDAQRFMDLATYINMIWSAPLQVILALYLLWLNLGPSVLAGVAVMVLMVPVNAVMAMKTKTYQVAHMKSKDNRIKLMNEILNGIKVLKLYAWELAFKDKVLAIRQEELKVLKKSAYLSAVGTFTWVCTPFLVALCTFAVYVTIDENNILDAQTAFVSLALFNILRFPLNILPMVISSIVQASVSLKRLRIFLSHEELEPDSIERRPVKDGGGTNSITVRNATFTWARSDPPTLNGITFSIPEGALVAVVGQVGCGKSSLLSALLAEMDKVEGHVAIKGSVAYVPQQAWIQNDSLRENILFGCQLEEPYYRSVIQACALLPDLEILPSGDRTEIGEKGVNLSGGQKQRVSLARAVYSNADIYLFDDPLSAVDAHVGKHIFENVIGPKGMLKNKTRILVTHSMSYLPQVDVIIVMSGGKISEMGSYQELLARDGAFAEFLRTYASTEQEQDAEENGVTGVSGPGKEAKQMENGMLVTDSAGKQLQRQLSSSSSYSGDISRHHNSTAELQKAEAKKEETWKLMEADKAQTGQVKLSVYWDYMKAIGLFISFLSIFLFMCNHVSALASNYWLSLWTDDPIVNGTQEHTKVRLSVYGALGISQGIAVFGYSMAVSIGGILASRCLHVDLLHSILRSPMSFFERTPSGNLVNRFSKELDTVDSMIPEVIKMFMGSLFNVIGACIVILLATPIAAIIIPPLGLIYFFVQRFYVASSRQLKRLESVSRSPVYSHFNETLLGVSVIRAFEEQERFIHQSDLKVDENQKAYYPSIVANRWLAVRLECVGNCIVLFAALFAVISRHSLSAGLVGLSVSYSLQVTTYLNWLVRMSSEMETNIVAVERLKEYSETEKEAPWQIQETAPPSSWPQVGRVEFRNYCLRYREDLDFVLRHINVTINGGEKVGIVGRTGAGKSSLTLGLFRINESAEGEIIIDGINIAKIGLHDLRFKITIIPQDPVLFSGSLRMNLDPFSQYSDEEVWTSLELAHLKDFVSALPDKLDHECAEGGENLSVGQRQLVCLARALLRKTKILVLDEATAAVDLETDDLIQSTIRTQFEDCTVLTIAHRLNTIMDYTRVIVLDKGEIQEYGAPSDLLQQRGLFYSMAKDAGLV
Procedure: To determine if the NSAIDs were acting directly on the MRP pump the uptake of [^3H]LTC4 into inside-out plasma membrane vesicles prepared from HL60ADR cells was examined using a rapid filtration procedure (Ishikawa,T., et al. (1994); J. Biol. Chem. 269 (46); 29085-29093). ATP-dependent transport of [^3H]LTC4 into the membrane vesicles was measured by a rapid filtration method using a Millipore sampling manifold. The membrane vesicles were thawed at 37° C. before use and kept on ice. The reaction components consisted of 0.25 M sucrose/10 mM Tris.HCl pH 7.4/1 mM ATP/10 mM MgCl2/10 mM creatine phosphate/ 110 μg/ml creatine kinase and 10 nM [^3H]LTC4, with 50 μg of the inside-out vesicle preparation, in a final volume of 110 μl. This suspension was incubated at 37° C., with gentle mixing, and aliquots, 20 μl, were taken at the indicated points. Those aliquots were diluted in 1 ml of ice-cold incubation buffer before being applied to 0.22 μm Millipore GSWP nitrocellulose filters, pre-soaked in ice-cold incubation buffer, under suction. The filters were subsequently washed with 3 ml ice-cold incubation buffer, and absorbed radioactivity was measured using a scintillation counter (Beckman). In control experiments ATP was replaced with 5μ-AMP to determine the ATP-dependent transport.

[3] = test system: GST prepared from DLKP cells; assay: total GST assay with 1-chloro-2,4-dinitrobenzene; format: biochemical, human
Procedure: The other NSAIDs were tested in a total GST assay (Habig, W. H., and Jakoby, W. B., (1981); Methods Enzymol., 77: 218-231). Total cellular GST activity was assayed, using 1-chloro-2,4-dinitrobenzene as a substrate, according to the method of Habig, W. H., and Jakoby, W. B., (1981); supra. Due to spectrophotometric interference at 340 nm, caused by the majority of the NSAIDs, the assays were all performed at 360 nm, without any apparent effect on the rate of the control reaction The results are shown in Table 5.

[4] = test system: DLKP cells; assay: Example 5 miniaturised in vitro cell toxicity assay, DLKP; format: cell-based, human
Procedure: For the monolayer cell lines miniaturised in vitro assays were used to determine drug toxicity. On Day I cells were seeded at 1×10^3 cells/well in a 96-well plate and left to attach overnight. Drug was added on Day 2, and the assay was terminated on Day 7. Cell number was then evaluated by using one of two colorimetric end-point […]: the acid phosphatase assay (Martin, A., and Clynes, M. (1991); In vitro Cell and Development Biology, 27A: 183-184) or the crystal violet dye elution assay (Martin, A., and Clynes, M. (1993); Cytotechnology, 11:49-58). All assays were performed in triplicate.

[5] = test system: A549 cell line; assay: miniaturised in vitro colorimetric cell survival assay (acid phosphatase end-point), A549; format: cell-based, human; settings: alone or + Adriamycin 40 ng/ml
Procedure: All the results presented in this Example for the DLKP, A549 and OAW42-SR cell lines were derived using the same miniaturised in vitro calorimetric assay system. On Day 1 of the assay 1000 cells/well/100 μl were plated into 96-well plates. Cells were allowed to attach overnight and cell viability was visually assessed. […] NSAID plus chemotherapeutic drug) to be analysed were added onto the cells. The individual drugs were added separately in 50 μl quantities (4× stocks, to take into account the dilution effect of having 200 μl final volume in each well). The drugs were left on the cells for five further days (Day 7) and cell number was determined using the acid phosphatase end-point assay which uses p-nitrophenol phosphate as substrate (Martin, A. and Clynes, M. (1991) In Vitro Dev. Biol., 27A, 183-184). On Day 7 the culture medium was removed from the cells and they were washed once with phosphate buffered saline (PBS). […] After the incubation period 50 μl of 1N NaOH was added to each well to develop the colour. The plates were then read at 405 nm (reference 620 nm) on an ELISA plate-reader. […] All results are the cell survival means ±S.D. from a minimum of three experiments.

[6] = test system: OAW42-SR cell line; assay: miniaturised in vitro colorimetric cell survival assay, LRP overexpressing OAW42-SR; format: cell-based, human; settings: alone or + Adriamycin 147 ng/ml
Procedure: All the results presented in this Example for the DLKP, A549 and OAW42-SR cell lines were derived using the same miniaturised in vitro calorimetric assay system. On Day 1 of the assay 1000 cells/well/100 μl were plated into 96-well plates. Cells were allowed to attach overnight and cell viability was visually assessed. On Day 2 the two drugs (i.e. NSAID plus chemotherapeutic drug) to be analysed were added onto the cells. The individual drugs were added separately in 50 μl quantities (4× stocks, to take into account the dilution effect of having 200 μl final volume in each well). The drugs were left on the cells for five further days (Day 7) and cell number was determined using the acid phosphatase end-point assay which uses p-nitrophenol phosphate as substrate (Martin, A. and Clynes, M. (1991) In Vitro Dev. Biol., 27A, 183-184). On Day 7 the culture medium was removed from the cells and they were washed once with phosphate buffered saline (PBS). […] After the incubation period 50 μl of 1N NaOH was added to each well to develop the colour. The plates were then read at 405 nm (reference 620 nm) on an ELISA plate-reader. […] All results are the cell survival means ±S.D. from a minimum of three experiments.

[7] = test system: MRP-specific substrates; assay: screen for enhancement of toxicity of MRP substrates by NSAIDs; format: cell-based; settings: summary statements
[8] = test system: COR L23 R (MRP+) cells; settings: doxorubicin 10 mg/ml alone or with sulindac 20 mg/ml, 1, 2, 4 h, FIG. 3
Procedure: 10^6 COR L23 P (parental non-MRP resistant, MRP−) or COR L23 R (MRP resistant, MRP+) cells were added to 75 cm^3 vented flasks containing HEPES buffered Rosemount Park Memorial Institute (RPMI) medium and maintained at 37° C. in a 5% CO2 atmosphere. […] After three days of growth, doxorubicin (final concentration 10 mg/ml), sulindac (final concentration 20 mg/ml) or doxorubicin and sulindac were added to individual flasks. Samples were taken after 1, 2 and 4 h. and assayed for drug content.
The contents of each flask were washed twice with 5 ml of PBS and stored at −70° C. The flasks were thawed and 100 μl of water and 100 μl of 33% silver nitrate added to each and mixed for 5 min. […]
The extract was resuspended in 50 μl of methanol in the sample vial and loaded into the HPLC autosampler. […] The mobile phases were pumped through a C18 reversed-phase Ultrasphere XL (Beckman) HPLC column (4.6×70 mm) with absorbance measured at 253 nm. […] The amount of doxorubicin and sulindac present was quantified by measuring the peak height of these drugs and the internal standard. […] The concentration of doxorubicin in the samples was calculated from the) nd development standard line using the peak height ratio. The sulindac concentrations were calculated by the same method.

[9] = read-out: % inhibition of transport of [3H]LTC4

COc1ccc2c(c1)c(CC(=O)O)c(C)n2C(=O)c1ccc(Cl)cc1 [Indomethacin, indomethacin]
enhancement of VP-16 sensitivity [1]: enhanced the VP-16 sensitivity of a variety of cancer cell lines
MRP-pump inhibitory activity [2]: have MRP-pump inhibitory activity
inhibition at 49 µM [2, 9]: 20%
inhibition at 98 µM [2, 9]: 70%
% Inhibition of GST ([3]; 0.4 mM): 54%
% cell survival ([4]; Indomethacin 0.6 μg/ml, alone or + Teniposide 6.25 ng/ml): 102.06 ± 5.11%
% cell survival ([4]; Indomethacin 1.25 μg/ml, alone or + Teniposide 6.25 ng/ml): 101.28 ± 5.12%
% cell survival ([4]; Indomethacin 2.5 μg/ml, alone or + Teniposide 6.25 ng/ml): 96.18 ± 3.43%
% cell survival ([5]; ix) Indomethacin 0.60 μg/ml): 92.38 ± 13.30%
% cell survival ([5]; ix) Indomethacin 1.20 μg/ml): 87.54 ± 13.07%
% cell survival ([5]; ix) Indomethacin 2.40 μg/ml): 92.18 ± 7.09%
% cell survival ([6]; vi) Indomethacin 0.625 μg/ml): 99.26 ± 3.7%
% cell survival ([6]; vi) Indomethacin 1.25 μg/ml): 97.67 ± 1.3%
% cell survival ([6]; vi) Indomethacin 2.5 μg/ml): 95.60 ± 3.3%
enhancement of toxicity of MRP substrates [7]: positive; also recorded: have been found to enhance the toxicity of MRP-specific substrates

CC1=C(CC(=O)O)c2cc(F)ccc2/C1=C\c1ccc([S+](C)[O-])cc1 (stereo not drawn) [Sulindac, sulindac]
inhibition at 45 µM ([2]; 45 μM): 25%
inhibition at 89 µM ([2]; 89 μM): 69%
MRP-pump inhibitory activity [2]: have MRP-pump inhibitory activity
% Inhibition of GST ([3]; 0.25 mM): 42.6%
% cell survival ([4]; Sulindac 1.5 μg/ml, alone or + Epirubicin 1 ng/ml): 99.92 ± 3.3%
% cell survival ([4]; Sulindac 3.0 μg/ml, alone or + Epirubicin 1 ng/ml): 100.29 ± 3.2%
% cell survival ([4]; Sulindac 6.0 μg/ml, alone or + Epirubicin 1 ng/ml): 100.07 ± 3.6%
% cell survival ([5]; xi) Sulindac 1.50 μg/ml): 100.00 ± 13.20%
% cell survival ([5]; xi) Sulindac 3.20 μg/ml): 101.00 ± 12.14%
% cell survival ([5]; xi) Sulindac 6.30 μg/ml): 96.01 ± 5.36%
doxorubicin level in the cells [8]: the doxorubicin level in the cells is increased to near that found in the MRP—cells
enhancement of toxicity of MRP substrates [7]: have been found to enhance the toxicity of MRP-specific substrates
